Reference: US11110098B2, “Methods and medicaments for the treatment of renal cell carcinoma” (University of Kansas, priority 2017, dated 2021)

Experiments:
786-O cells [1] = experiment: Annexin V-FITC/PI apoptosis/necrosis, 786-O cells; assay type: cell-based, human; conditions: 24 h
Procedure: Annexin V-FITC/PI staining was performed for quantification of apoptosis and necrotic cell death using FITC AnnexinV apoptosis detection kit I. Green FITC dye stains apoptotic cells whereas propidium iodide stains necrotic cells with red fluorescence. RCC cells were incubated with OPC31260 for 24 h and washed in cold PBS and resuspended in calcium containing binding buffer (10 mM HEPES, 140 mM NaCl, 5 mM CaCl2; pH 7.4) at a concentration of 1×10^6 cells/ml and stained for 15 min, with 5 μl Annexin V-FITC and 5 μl PI at 1 μg/ml (Cell signaling kit, USA). 10,000 cells were analyzed at an excitation wavelength of 488 nm and emission wavelengths of 530 nm for FITC fluorescence and 610 nm for PI fluorescence. The percentages of viable (Annexin V−PI−), early apoptotic (Annexin V+PI−), late apoptotic/necrotic (Annexin V+PI+) and necrotic cells (Annexin V-PI+) were evaluated with the CellQuestPro® software (Becton, Dickinson, Heidelberg, Germany).

Caki-1 cells [2] = experiment: Cell cycle analysis (propidium iodide, FACS), Caki-1 cells; assay type: cell-based, human; conditions: 24 h, 10 μM or higher doses
Procedure: (§1) 786-O and Caki-1 cells were incubated for 24 h with 0, 1, 5, 10, 25 or 50 μM of OPC31260, and stained with propidium iodide for analysis by flow cytometry. Cells were rinsed with PBS and trypsinized, and washed twice with PBS. Single-cell suspensions were fixed using pre-chilled 70% ethanol overnight, and subsequently permeabilized with PBS containing 0.1% Triton X-100, 1 mg/ml propidium iodide (Sigma-Aldrich) and 2 mg/ml DNase-free RNase at room temperature. Flow cytometry was done with a FACS Calibur analyzer (Becton Dickinson, Mountain, View, Calif.), capturing 10,000 events for each sample. Results were analyzed with ModFit LT™ software (Verity Software House, Topsham, Me.).

Caki-1 cells [3] = experiment: Immunostaining of xenograft tumor sections (Ki-67, BRDU, CD31); assay type: in vivo, Nu/Nu mice; conditions: OPC31260 IP, tolvaptan 120 mg/Kg oral, dDAVP 1 μg/Kg IP, daily 28 days
Procedure: (§2) Female Athymic Nude-Foxn1^nu mice (Nu/Nu mice), 7-8 weeks old and weighing ˜25 g were procured from Envigo/Harlan. All animal studies were carried out according to the protocols approved by the University of Kansas Medical Center Institutional Animal Care and Use Committee. Mice were subcutaneously injected on the right flank region with 1×10^6 Caki-1 cells in 100 μl of DMEM medium. One week after injection, palpable tumors appeared and tumor volume was measured with calipers following the formula, […]. Once the tumor volume reached ˜80-100 mm^3, mice were randomized into sub-groups based on the tumor volume. Animals were administered vehicle, OPC31260 (30 mg/Kg BWt.), OPC31260 (60 mg/Kg BWt) or dDAVP (1 μg/Kg BWt.) and vehicle (saline) by daily intraperitoneal injection, or tolvaptan (120 mg/Kg BWt. in 1% aqueous solution of hydroxypropyl methylcellulose-dose derived from previous study^31) or vehicle by daily oral gavage for 28 days. Body weights and tumor volumes were measured every alternate day. At the end of the study, mice were injected with BRDU (100 mg/Kg BWt. by IP) 90 minutes before sacrifice. Tumors were harvested, photographed and weighed. Tumors were flash frozen or paraffin embedded for further analysis.
Tumor tissues were fixed overnight in 4% paraformaldehyde, dehydrated in a graded alcohol series, and embedded in paraffin for histological analysis as previously described^26. Slides with 5 μm tissue sections were heated in a steamer for 20 min in citrate buffer (pH 6.0) to unmask antigens. Slides were further blocked with 10% goat serum (Invitrogen) and then incubated overnight with primary antibody (V2R, CD31, BRDU, Ki67 and p-H3). After washing the slides with PBST, slides were incubated with appropriate fluorescence-labeled secondary antibody (Invitrogen) and streptavidin HRP conjugated (Invitrogen) secondary antibody for immunoflurorescence and immunohistochemistry, respectively. Slides were also incubated in 4′,6-diamidino-2-phenylindole to visualize nuclei. For immunofluorescence staining, slides were mounted with Fluoromount G (Southern Biotech). For immunohistochemistry, slides were developed with DAB (Vector Laboratories) and counterstained with Harris haematoxylin, dehydrated, and mounted with Permount (Fisher Scientific, Waltham, Mass.). All images were captured using a Nikon 80i microscope (Tokyo, Japan) at the KUMC Imaging Center.

786-O cells [4] = experiment: Cell cycle analysis (propidium iodide, FACS), 786-O cells; assay type: cell-based, human; conditions: 24 h, 10 μM or higher doses
Procedure: as §1

786-O cells [5] = experiment: Western blot of cell lysate, 786-O cells; assay type: cell-based, human; conditions: 24 h
Source text: Tumors from mouse xenografts and cultured 786-O and Caki-1 cells were homogenized in SDS Laemmli buffer and loaded onto 10% SDS-polyacrylamide agarose gel electrophoresis gels, transferred to nitrocellulose membranes and blocked with 5% milk in TBST^32. Membranes were probed with primary antibody followed by wash and horseradish peroxidase secondary antibody application.

Caki-1 cells [6] = experiment: TUNEL assay for apoptosis in xenograft tumor sections; assay type: in vivo, Nu/Nu mice; conditions: OPC31260 IP, tolvaptan 120 mg/Kg oral, dDAVP 1 μg/Kg IP, daily 28 days
Procedure: as §2
TUNEL assays were performed to check apoptosis using the in situ Cell Death Detection Kit (Roche Applied Science, Indianapolis, Ind.). Briefly, slides with 5-μm tumor sections were treated to a TUNEL reaction mixture containing terminal deoxynucleotidyl transferase and nucleotides, including tetramethylrhodamine-labeled dUTP. Both Dapi stained and TUNEL-positive nuclei were counted as described for proliferating cell nuclear antigen. All images were captured using a Nikon 80i microscope (Tokyo, Japan) in the KUMC Imaging Center.

786-O cells [7] = experiment: MTT cell viability, 786-O cells; assay type: cell-based; conditions: Homo sapiens, 786-0, 48 h, read-out: dose at which cell viability declined by 50%
Procedure: MTT assays were performed to measure cell viability. Briefly, exponentially growing 786-O and Caki-1 cells were seeded in 96 well plates. After 24 h, cells were incubated with different doses of OPC31260 for 48 h. The cells were then incubated in MTT solution (5 mg/mL) for 2 h, following which the MTT solution was removed and the intracellular purple formazan was solubilized in DMSO and quantified by spectrophotometry at […].

786-O cells [8] = experiment: Clonogenic assay, 786-O cells; assay type: cell-based, human; conditions: 48 h treatment, 10 days growth
Procedure: 786-O and Caki-1 cells were plated at very low density (1,000 cells/well) in six-well plates. After 16 h, cells were treated with different doses of OPC31260 and incubated for 48 h. Cells were washed and grown for 10 days until visible colonies formed. Colonies were fixed with 4% paraformaldehyde in PBS, stained with 0.25% crystal violet in 25% methanol, washed, air-dried and photographed. Crystal violet was dissolved in sodium citrate buffer (0.1M, 50% ethanol, pH 4.2) and absorbance was recorded at 590 nm.

Cc1ccccc1C(=O)Nc1ccc(C(=O)N2CCCC(N(C)C)c3ccccc32)cc1 (centres unmarked) [OPC31260, 5-(dimethylamino)-1-[4-(2-methylbenzamido)benzoyl]-2,3,4,5-tetrahydro-1H-benzazepine]
apoptosis (786-O cells [1]): increase in apoptosis
cells in G2/M phase (Caki-1 cells [2]): 60-70%
BRDU staining / incorporation of tumors compared to vehicle (Caki-1 cells [3]): significantly reduced
Ki-67 staining of tumors compared to vehicle (Caki-1 cells [3]): significantly reduced
tumor micro-vessel density (CD31 staining) (Caki-1 cells [3]): significantly reduced
cells in G2/M phase (786-O cells [4]): 60-70%
pCREB levels (786-O cells [5]): dose-dependently reduced
pERK1/2 levels (786-O cells [5]): dose-dependently reduced
TUNEL staining of tumors compared to vehicle (Caki-1 cells [6]): increased
IC50 (786-O cells [7]): 5 to 10 µM
dose from which a significant decline in colony formation was observed (786-O cells [8]): 5 µM
